# Data taken from patent US10906951B2, “Modified natural killer cells and natural killer cell lines having increased cytotoxicity” (ONK THERAPEUTICS LIMITED, priority 2015, dated 2021).
# Substitutions are numbered along the chain they refer to. Names may count otherwise. Read-outs that look alike come from different tables or passages of the source.
# T1: decoy receptor DcR1 (Homo sapiens, UniProt O14798)
# T1 sequence (O14798 26-236): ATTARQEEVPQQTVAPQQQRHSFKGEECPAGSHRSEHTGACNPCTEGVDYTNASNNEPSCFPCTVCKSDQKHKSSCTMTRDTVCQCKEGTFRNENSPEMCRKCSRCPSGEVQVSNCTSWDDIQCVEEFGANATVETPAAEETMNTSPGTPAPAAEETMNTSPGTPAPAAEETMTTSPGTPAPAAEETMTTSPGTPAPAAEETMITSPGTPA
# B1: TRAIL variant (D269H/E195R): TRAIL variant of WO 2009/077857, encoded by the wildtype TRAIL gene containing the D269H/E195R mutation (protein)
# chain: MAMMEVQGGPSLGQTCVLIVIFTVLLQSLCVAVTYVYFTNELKQMQDKYSKSGIACFLKEDDSYWDPNDEESMNSPCWQVKWQLRQLVRKMILRTSEETISTVQEKQQNISPLVRERGPQRVAAHITGTRGRSNTLSSPNSKNEKALGRKINSWESSRSGHSFLSNLHLRNGELVIHEKGFYYIYSQTYFRFQERIKENTKNDKQMVQYIYKYTSYPDPILLMKSARNSCWSKDAEYGLYSIYQGGIFELKENDRIFVSVTNEHLIDMHHEASFFGAFLVG
# B2: T261L/G160E/H270D/T200H: TRAIL DcR variant, Leary 2016 (protein, UniProt P50591 1-281, looked up, variant T261L G160E H270D T200H)
# Tumor necrosis factor ligand …: B1 chain with G160E, R195E, T200H, T261L, H269D, H270D
# B3: T261L/H270D: TRAIL DcR variant, Leary 2016 (protein, UniProt P50591 1-281, looked up, variant T261L H270D)
# Tumor necrosis factor ligand …: B1 chain with R195E, T261L, H269D, H270D
# B4: T261L/G160E/H270D: TRAIL DcR variant, Leary 2016 (protein, UniProt P50591 1-281, looked up, variant T261L G160E H270D)
# Tumor necrosis factor ligand …: B1 chain with G160E, R195E, T261L, H269D, H270D
# B5: D218A: TRAIL DcR variant, WO 01/00832 (protein, UniProt P50591 1-281, looked up, variant D218A)
# Tumor necrosis factor ligand …: B1 chain with R195E, D218A, H269D
# B6: T261L/G160E: TRAIL DcR variant, Leary 2016 (protein, UniProt P50591 1-281, looked up, variant T261L G160E)
# Tumor necrosis factor ligand …: B1 chain with G160E, R195E, T261L, H269D
# Assays:
# perforin = assay: CMA-induced reduction of perforin expression in KHYG-1 cells, flow cytometry; assay type: cell-based, human; conditions: 100 nM for 2 hours, FIG. 20
# Protocol: Mouse anti-human perforin-AF647 (catalog number: 563576) was bought from BD pharmingen. Concanamycin A (catalog number: SC-202111) was bought from Santa Cruz Biotechnology. The stained cell samples were analyzed using a BD FACS Canto II.
# (1) KHYG-1 cells were cultured in RPM11640 medium containing 10% FBS (fetal bovine serum), 2 mM L-glutamine, penicillin (100 U/mL)/streptomycin ([…]), and IL-2 (10 ng/mL).
# (§1) (2) KHYG-1 cells (6 hours after electroporation, cultured in penicillin/streptomycin free RPMI1640 medium) were further treated with 100 nM CMA or equal volume of vehicle (DMSO) for 2 hours.
# (3) The cells were collected (1×10^6 cells/test) by centrifugation (1500 rpm×5 minutes) and the supernatant was aspirated.
# (4) The cells were fixed in 4% paraformaldehyde in PBS solution at room temperature for 15 minutes.
# (5) The cells were washed with 4 mL of FACS Buffer (PBS, 0.5-1% BSA, 0.1% sodium azide) twice.
# (6) The cells were permeabilized with 1 mL of PBS/0.1% saponin buffer for 30 minutes at room temperature.
# (7) The cells were washed with 4 mL of PBS/0.1% saponin buffer.
# (8) The cells were re-suspended in 100 uL of PBS/0.1% saponin buffer, before adding 5 uL of the antibody to each tube and incubating for 30 minutes on ice. […]
# (11) The cells were analyzed on the flow cytometer (BD FACS Canto II). […]
# KHYG-1 cells = assay: KHYG-1 cell viability after CMA treatment; assay type: cell-based; conditions: 100 nM CMA or vehicle, FIG. 21
# Protocol: as §1
# DR5 [1] = conditions: low dose, 24 hours, FIG. 18
# Protocol: Bortezomib was bought from Millennium Pharmaceuticals. Mouse anti-human DR5-AF647 (catalog number: 565498) was bought from BD Pharmingen. The stained cell samples were analyzed on BD FACS Canto II. (1) MM cell lines RPM18226 and MM1.S were grown in RPM11640 medium (Sigma, St Louis, Mo., USA) supplemented with 2 mM L-glutamine, 10 mM HEPES, 24 mM sodium bicarbonate, 0.01% of antibiotics and 10% fetal bovine serum (Sigma, St Louis, Mo., USA), in 5% CO2 atmosphere at 37° C. (2) MM cells were seeded in 6-well plates at 1×10^6/mL, 2 mL/well. (3) MM cells were then treated with different doses of Bortezomib for 24 hours. (4) DR5 expression in Bortezomib treated/untreated MM cells was then analyzed by flow cytometry (FIG. 18).
# MM cells = system: MM cells
# Protocol: (1) MM cell lines RPM18226 and MM1.S were grown in RPM11640 medium (Sigma, St Louis, Mo., USA) supplemented with 2 mM L-glutamine, 10 mM HEPES, 24 mM sodium bicarbonate, 0.01% of antibiotics and 10% fetal bovine serum (Sigma, St Louis, Mo., USA), in 5% CO2 atmosphere at 37° C.
# (2) MM cells were seeded in 6-well plates at 1×10^6/mL, 2 mL/well.
# (3) MM cells were then treated with different doses of Bortezomib for 24 hours.
# MM1.S cells = assay: Bortezomib-induced sensitization of MM1.S cells to KHYG-1 cells expressing TRAIL variant; assay type: cell-based; conditions: MM1.S pretreated with 2.5 nM for 24 hours, 1:1 co-culture 12 hours, FIG. 19
# Protocol: KHYG-1 cells were transfected with the TRAIL variant (TRAIL D269H/E195R), as described above in Example 6.
# (1) Bortezomib treated/untreated MM1.S cells were used as target cells. MM1.S cells were treated with 2.5 nM of Bortzeomib or vehicle (control) for 24 hours.
# (2) 6 hours after electroporation of TRAIL variant mRNA, KHYG-1 cells were then cultured with MM cells in 12-well plate. After washing, cell concentrations were adjusted to 1×10^6/mL, before mixing KHYG-1 and MM1.S cells at 1:1 ratio to culture for 12 hours.
# (3) Flow cytometric analysis of the cytotoxicity of KHYG-1 cells was carried out. The co-cultured cells were collected, washed and then stained with CD2-APC antibody (5 uL/test), AnnexinV-FITC (5 uL/test) and SYTOX-Green (5 uL/test) using AnnexinV binding buffer.
# (4) Data were further analyzed using FlowJo 7.6.2 software. CD2-negative population represents MM1.S cells. KHYG-1 cells are strongly positive for CD2. Finally, the AnnexinV-FITC and SYTOX-Green positive cells in the CD2-negative population were analyzed.
# Flow cytometric analysis of apoptosis was performed in Bortezomib-pretreated/untreated MM1.S cells co-cultured with KHYG-1 cells electroporated with/without TRAIL variant (FIG. 19).
# LIR2 gene = assay: gRNA cleavage activity, T7E1 mismatch detection assay in K562 cells, LIR2; assay type: cell-based, human; conditions: CRISPR/Cas9, T7E1 mismatch assay, FIG. 4
# Source text: (§2) Two gRNA candidates were selected for each target gene and their cleavage efficacies in K562 cells determined. The sequences of the gRNA candidates are shown in Table 1 and the Protospacer Adjacent Motif (PAM) relates to the last 3 bases of the sequence. The flanking regions of the gRNA sequences on the LIR2 gene (SEQ ID NO: 1) and the CTLA4 gene (SEQ ID NO: 7) are shown in FIGS. 1 and 2, respectively.
# (§3) K562 cells were transfected with the prepared gRNA constructs (FIG. 3) and subsequently harvested for PCR amplification. The presence of GFP expression was used to report successful incorporation of the gRNA construct into the K562 cells. This confirmed expression of the Cas9 gene and therefore the ability to knock out expression of the LIR2 and CTLA4 genes.
# (§4) The cleavage activity of the gRNA constructs was determined using an in vitro mismatch detection assay. T7E1 endonuclease I recognises and cleaves non-perfectly matched DNA, allowing the parental LIR2 and CTLA4 genes to be compared to the mutated genes following CRISPR/Cas9 transfection and non-homologous end joining (NHEJ).
# CTLA4 gene = assay: gRNA cleavage activity, T7E1 mismatch detection assay in K562 cells, CTLA4; assay type: cell-based, human; conditions: CRISPR/Cas9, T7E1 mismatch assay, FIG. 5
# Source text: as §2, §3, §4
# DR4 = DR4 (Homo sapiens, UniProt O00220); conditions: surface plasmon resonance; WO 2009/077857; cited from earlier work
# decoy receptor DcR1 = target: T1, decoy receptor DcR1; conditions: surface plasmon resonance; WO 2009/077857; cited from earlier work
# DR5 [2] = target: DR5 (Homo sapiens, UniProt O14763); conditions: in words; known from WO 2009/077857, Van der Sloot 2006, MacFarlane 2005, WO 01/00832; cited from earlier work
# [3] = system: TRAIL decoy receptors (DcR1 and DcR2); conditions: in words; known from WO 2009/077857, Leary 2016, WO 01/00832; cited from earlier work
molecule,measurement,setting,value
"C/C=C/[C@H]1O[C@@](O)([C@@H](C)[C@H](O)[C@H](C)[C@H]2OC(=O)/C(OC)=C/C(C)=C/[C@@H](C)[C@@H](O)[C@@H](CC)[C@@H](O)[C@H](C)C/C(C)=C/C=C/[C@@H]2OC)C[C@@H](O[C@H]2C[C@@H](O)[C@H](OC(N)=O)[C@@H](C)O2)[C@@H]1C [CMA, Concanamycin A]",perforin expression level,perforin,significantly decreased
same,viability of KHYG-1 cells,KHYG-1 cells,no negative effects
CC(C)C[C@H](NC(=O)[C@H](Cc1ccccc1)NC(=O)c1cnccn1)B(O)O [Bortezomib],DR5 expression,DR5 [1]; MM1.S cells,increase DR5 expression
same,DR5 expression,DR5 [1]; RPMI8226 cells,increase DR5 expression
same,toxicity at high doses,MM cells; high doses,high toxicity resulting in most of the MM cells dying
same,induction of apoptosis associated with DR5 upregulation,"MM cells; low dose, data not shown",minor induction of apoptosis
same,sensitivity of MM cells to KHYG-1 cells expressing the TRAIL variant,MM1.S cells,induced sensitivity of MM cells
g9 gRNA: LIR2 g9 gRNA sequence GAGTCACAGGTGGCATTTGGCGG (expressed or natural sequence; listed as Homo sapiens),gRNA cleavage efficiency (LIR2 knockout),LIR2 gene,11%
g18 gRNA: LIR2 g18 gRNA sequence CGAATCGCAGGTGGTCGCACAGG (expressed or natural sequence; listed as Homo sapiens),gRNA cleavage efficiency (LIR2 knockout),LIR2 gene,10%
g15 gRNA: CTLA4 g15 gRNA sequence CCTTGTGCCGCTGAAATCCAAGG (expressed or natural sequence; listed as Homo sapiens),gRNA cleavage efficiency (CTLA4 knockout),CTLA4 gene,26%
g7 gRNA: CTLA4 g7 gRNA sequence CACTCACCTTTGCAGAAGACAGG (expressed or natural sequence; listed as Homo sapiens),gRNA cleavage efficiency (CTLA4 knockout),CTLA4 gene,32%
Wildtype TRAIL: wildtype TRAIL ligand; DNA sequence SEQ ID NO: 13,Kd,DR4,> 2 nM
same,Kd,decoy receptor DcR1,> 20 nM
B1,affinity for DR5,DR5 [2],significantly increases the affinity
same,affinity for TRAIL decoy receptors,[3],reducing the affinity
B2,affinity for TRAIL decoy receptors,[3],decreased affinity for TRAIL decoy receptors
B3,affinity for TRAIL decoy receptors,[3],decreased affinity for TRAIL decoy receptors
B4,affinity for TRAIL decoy receptors,[3],decreased affinity for TRAIL decoy receptors
B5,affinity for TRAIL decoy receptors,[3],DcR variants
B6,affinity for TRAIL decoy receptors,[3],decreased affinity for TRAIL decoy receptors
